Data as given in the NIST ThermoML archive (doi:10.1016/j.tca.2006.04.016).
± gives the expanded uncertainty stated by the source.

Assay: xn = mol fraction of the nth substance listed
Details: 101 kPa, Liquid, Vibrating tube method

CN(C)CCCN [N,N-dimethyl-1,3-propanediamine] + O
mass density [kg/m3]
Details	283.15 K	288.15 K	293.15 K	298.15 K	303.15 K	308.15 K	313.15 K	318.15 K
x2 = 0	825.96 ± 0.13	821.56 ± 0.14	817.14 ± 0.14	812.72 ± 0.14	808.28 ± 0.14	803.83 ± 0.15	799.38 ± 0.15	794.9 ± 0.15
x2 = 0.0403	829.01 ± 0.13	824.62 ± 0.14	820.21 ± 0.14	815.8 ± 0.14	811.37 ± 0.14	806.92 ± 0.14	802.47 ± 0.15	797.99 ± 0.15
x2 = 0.0811	832.1 ± 0.14	827.73 ± 0.14	823.33 ± 0.14	818.92 ± 0.14	814.5 ± 0.14	810.07 ± 0.15	805.61 ± 0.15	801.14 ± 0.15
x2 = 0.1198	835.2 ± 0.14	830.84 ± 0.14	826.46 ± 0.14	822.07 ± 0.15	817.65 ± 0.15	813.22 ± 0.15	808.78 ± 0.15	804.31 ± 0.15
x2 = 0.16	838.61 ± 0.15	834.27 ± 0.15	829.9 ± 0.15	825.51 ± 0.15	821.11 ± 0.15	816.69 ± 0.16	812.24 ± 0.16	807.78 ± 0.16
x2 = 0.1996	842.14 ± 0.15	837.81 ± 0.16	833.45 ± 0.16	829.08 ± 0.16	824.69 ± 0.16	820.27 ± 0.16	815.84 ± 0.16	811.38 ± 0.17
x2 = 0.2498	846.96 ± 0.17	842.65 ± 0.17	838.31 ± 0.17	833.95 ± 0.17	829.57 ± 0.17	825.17 ± 0.17	820.74 ± 0.17	816.29 ± 0.18
x2 = 0.2998	852.16 ± 0.18	847.87 ± 0.18	843.54 ± 0.18	839.2 ± 0.18	834.84 ± 0.19	830.45 ± 0.19	826.04 ± 0.19	821.59 ± 0.19
x2 = 0.3499	857.74 ± 0.2	853.47 ± 0.2	849.16 ± 0.2	844.84 ± 0.2	840.49 ± 0.2	836.11 ± 0.2	831.71 ± 0.2	827.27 ± 0.2
x2 = 0.3997	863.92 ± 0.22	859.67 ± 0.22	855.38 ± 0.22	851.07 ± 0.22	846.73 ± 0.22	842.37 ± 0.22	837.97 ± 0.22	833.54 ± 0.22
x2 = 0.4501	870.78 ± 0.24	866.55 ± 0.24	862.28 ± 0.24	857.98 ± 0.24	853.66 ± 0.24	849.3 ± 0.24	844.91 ± 0.24	840.49 ± 0.24
x2 = 0.4998	878.37 ± 0.26	874.15 ± 0.26	869.89 ± 0.26	865.61 ± 0.26	861.29 ± 0.26	856.94 ± 0.26	852.56 ± 0.26	848.14 ± 0.26
x2 = 0.5501	886.96 ± 0.28	882.76 ± 0.28	878.51 ± 0.28	874.24 ± 0.28	869.93 ± 0.28	865.59 ± 0.28	861.21 ± 0.28	856.79 ± 0.28
x2 = 0.5999	896.46 ± 0.3	892.27 ± 0.3	888.05 ± 0.3	883.78 ± 0.3	879.48 ± 0.3	875.14 ± 0.3	870.76 ± 0.3	–
x2 = 0.6498	907.17 ± 0.32	902.99 ± 0.32	898.77 ± 0.32	894.51 ± 0.32	890.21 ± 0.32	885.88 ± 0.32	881.5 ± 0.32	–
x2 = 0.7	919.35 ± 0.35	915.19 ± 0.35	910.98 ± 0.34	906.73 ± 0.34	902.43 ± 0.34	898.1 ± 0.34	893.72 ± 0.34	–
x2 = 0.7499	932.79 ± 0.37	928.64 ± 0.37	924.44 ± 0.37	920.2 ± 0.37	915.92 ± 0.37	911.6 ± 0.36	907.23 ± 0.36	–
x2 = 0.8	947.49 ± 0.4	943.36 ± 0.39	939.18 ± 0.39	934.96 ± 0.39	930.71 ± 0.39	926.42 ± 0.39	922.09 ± 0.39	–
x2 = 0.84	959.97 ± 0.42	955.86 ± 0.41	951.72 ± 0.41	947.55 ± 0.41	943.35 ± 0.41	939.13 ± 0.41	934.86 ± 0.41	–
x2 = 0.8799	972.18 ± 0.44	968.2 ± 0.44	964.2 ± 0.44	960.18 ± 0.43	956.14 ± 0.43	952.08 ± 0.43	947.99 ± 0.43	–
x2 = 0.9	977.57 ± 0.45	973.8 ± 0.45	970 ± 0.45	966.18 ± 0.45	962.33 ± 0.44	958.45 ± 0.44	954.54 ± 0.44	–
x2 = 0.92	981.9 ± 0.46	978.55 ± 0.46	975.13 ± 0.46	971.67 ± 0.46	968.16 ± 0.46	964.59 ± 0.45	960.96 ± 0.45	–
x2 = 0.94	984.99 ± 0.47	982.31 ± 0.47	979.51 ± 0.47	976.61 ± 0.47	973.6 ± 0.47	970.49 ± 0.47	967.29 ± 0.46	–
x2 = 0.9597	987.53 ± 0.48	985.64 ± 0.48	983.57 ± 0.48	981.34 ± 0.48	978.95 ± 0.48	976.4 ± 0.48	973.72 ± 0.48	–
x2 = 0.975	990.28 ± 0.49	988.99 ± 0.49	987.47 ± 0.49	985.74 ± 0.49	983.82 ± 0.49	981.71 ± 0.49	979.42 ± 0.49	–
x2 = 0.99	994.84 ± 0.5	994.04 ± 0.5	992.95 ± 0.5	991.63 ± 0.5	990.07 ± 0.5	988.31 ± 0.5	986.35 ± 0.5	–
